# Reference: ChEMBL document CHEMBL5390297, “New Teixobactin Analogues with a Total Lactam Ring” (2023)
# Legend:
# Type in all cases: functional
# Escherichia coli = experiment: Antibacterial activity against Escherichia coli ATCC 25922 assessed as reduction in bacterial growth incubated for 18 hrs by CLSI based broth microdilution method
# Nakaseomyces glabratus = experiment: Antifungal activity against Candida glabrata ATCC 15126 assessed as reduction in bacterial growth incubated for 24 hrs by CLSI based broth microdilution method
# Staphylococcus aureus [1] = experiment: Antibacterial activity against Staphylococcus aureus ATCC 25923 assessed as reduction in bacterial growth incubated for 18 hrs by CLSI based broth microdilution method
# Staphylococcus aureus [2] = experiment: Antibacterial activity against methicillin-resistant Staphylococcus aureus ATCC 33591 assessed as reduction in bacterial growth incubated for 24 hrs by CLSI based broth microdilution method
# [3] = system: Staphylococcus epidermidis; experiment: Antibacterial activity against Staphylococcus epidermidis ATCC 14990 assessed as reduction in bacterial growth incubated for 18 hrs by CLSI based broth microdilution method
MIC (Escherichia coli),MIC (Nakaseomyces glabratus),Structure (SMILES),MIC (Staphylococcus aureus [1]),MIC (Staphylococcus aureus [2]),MIC [3]
> 512 µg/mL,> 512 µg/mL,CC[C@H](C)[C@@H]1NC(=O)[C@H](CCCNC(=N)N)NC(=O)[C@H](C)NC(=O)[C@H](NC(=O)[C@H](CO)NC(=O)[C@@H](NC(=O)[C@H](NC(=O)[C@@H](CCC(N)=O)NC(=O)[C@H](CO)NC(=O)[C@@H](NC(=O)[C@@H](Cc2ccccc2)NC)[C@@H](C)CC)[C@@H](C)CC)[C@@H](C)CC)CNC1=O,,,
> 512 µg/mL,> 512 µg/mL,CC[C@H](C)[C@H](NC(=O)[C@H](N)Cc1ccccc1)C(=O)N[C@@H](CO)C(=O)N[C@H](CCC(N)=O)C(=O)N[C@@H](C(=O)N[C@H](C(=O)N[C@@H](CO)C(=O)N[C@@H]1CNC(=O)[C@H]([C@@H](C)CC)NC(=O)[C@H](CCCNC(=N)N)NC(=O)[C@H](C)NC1=O)[C@@H](C)CC)[C@@H](C)CC,,,
> 512 µg/mL,> 512 µg/mL,CCCC[C@@H]1NC(=O)[C@H](CCCNC(=N)N)NC(=O)[C@H](C)NC(=O)[C@H](NC(=O)[C@H](CO)NC(=O)[C@@H](NC(=O)[C@H](NC(=O)[C@@H](CCC(N)=O)NC(=O)[C@H](CO)NC(=O)[C@@H](NC(=O)[C@@H](Cc2ccccc2)NC)[C@@H](C)CC)[C@@H](C)CC)[C@@H](C)CC)CNC1=O,,,
> 512 µg/mL,> 512 µg/mL,CC[C@H](C)[C@H](NC(=O)[C@H](N)Cc1ccccc1)C(=O)N[C@@H](CO)C(=O)N[C@H](CCCNC(=N)N)C(=O)N[C@@H](C(=O)N[C@H](C(=O)N[C@@H](CO)C(=O)N[C@@H]1CNC(=O)[C@H]([C@@H](C)CC)NC(=O)[C@H](CCCNC(=N)N)NC(=O)[C@H](C)NC1=O)[C@@H](C)CC)[C@@H](C)CC,,,

Structure (SMILES),MIC (Escherichia coli),MIC (Nakaseomyces glabratus),MIC (Staphylococcus aureus [1]),MIC (Staphylococcus aureus [2]),MIC [3]
CCCC[C@@H]1NC(=O)[C@H](CCCNC(=N)N)NC(=O)[C@H](C)NC(=O)[C@H](NC(=O)[C@H](CO)NC(=O)[C@@H](NC(=O)[C@H](NC(=O)[C@@H](CCC(N)=O)NC(=O)[C@H](CO)NC(=O)[C@@H](NC(=O)[C@H](N)Cc2ccccc2)[C@@H](C)CC)[C@@H](C)CC)[C@@H](C)CC)CNC1=O,> 512 µg/mL,> 512 µg/mL,4 µg/mL,4 µg/mL,8 µg/mL
